Columns and labels:
caspase-11 = biological target: T1, caspase-11 (Mus musculus, UniProt P70343); assay: Caspase-11 inhibition assay (Ac-YVAD-AMC); type: biochemical
T1 construct: made in house; host or cells: Sf9 (baculovirus)
T1 sequence (P70343 81-373): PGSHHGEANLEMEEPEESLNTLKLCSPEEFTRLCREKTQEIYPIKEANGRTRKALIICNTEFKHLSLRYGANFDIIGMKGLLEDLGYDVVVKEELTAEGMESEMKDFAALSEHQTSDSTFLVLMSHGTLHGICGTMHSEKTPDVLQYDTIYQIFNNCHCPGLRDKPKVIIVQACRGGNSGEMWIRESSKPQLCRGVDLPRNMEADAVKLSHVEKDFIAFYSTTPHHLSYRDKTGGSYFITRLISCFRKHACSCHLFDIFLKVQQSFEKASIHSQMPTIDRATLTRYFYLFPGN
Protocol: Caspase-1 and caspase-11 inhibition assays: the fluorogenic assay for caspase-1 and caspase-11 activity is based on release of 7-amino-4-methylcoumarin (AMC) from the caspase substrate Ac-YVAD-AMC. Compounds (8 nM-50 μM) were incubated with 0.5 U of caspase-1 or caspase-11 for 30 min in assay buffer (20 mM HEPES, 150 mM NaCl) in 384-well plates (Corning 3820) before addition of Ac-YVAD-AMC (40 μM) to initiate the reactions. Reactions were monitored in a SpectraMax M5 plate reader (Molecular Devices, Sunnyvale, Calif. USA) with excitation/emission wavelengths at 350/460 nm. The fluorescence intensity of each reaction was recorded every 2 min for 2 hrs.
Fluorescence intensity at 460 nm was measured after excitation at 350 nm.

Human GSDMD = biological target: T2, Human GSDMD (Homo sapiens, UniProt P57764); assay: Liposome leakage assay (Tb3+/DPA), GSDMD plus caspase-11; type: biochemical; conditions: for IC50: WT GSDMD, caspase-11-triggered, read-out: IC50 of liposome leakage
T2 construct: His6-MBP (N, cleaved yes); made in house; host or cells: E. coli BL21 (DE3) for GSDMD; Sf9 for caspase-11
T2 sequence (P57764 1-484): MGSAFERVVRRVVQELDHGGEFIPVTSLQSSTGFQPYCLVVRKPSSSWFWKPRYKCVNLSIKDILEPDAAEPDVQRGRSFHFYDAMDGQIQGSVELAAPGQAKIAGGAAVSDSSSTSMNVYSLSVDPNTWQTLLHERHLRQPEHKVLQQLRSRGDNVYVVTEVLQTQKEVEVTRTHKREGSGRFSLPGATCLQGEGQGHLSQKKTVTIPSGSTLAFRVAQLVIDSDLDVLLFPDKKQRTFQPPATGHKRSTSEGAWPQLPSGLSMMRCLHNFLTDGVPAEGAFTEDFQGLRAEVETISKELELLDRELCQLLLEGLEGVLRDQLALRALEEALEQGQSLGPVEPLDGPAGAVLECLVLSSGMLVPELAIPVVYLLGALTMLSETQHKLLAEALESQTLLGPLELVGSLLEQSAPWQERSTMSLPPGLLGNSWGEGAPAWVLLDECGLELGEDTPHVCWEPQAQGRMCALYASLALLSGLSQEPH
Protocol: The lipid mixture was suspended in 1 mL Buffer A (20 mM HEPES, 150 mM NaCl, 50 mM sodium citrate, and 15 mM TbCl3) for 3 min. The suspension was pushed through 100 nm Whatman® Nuclepore™ Track-Etched Membrane 30 times to obtain homogeneous liposomes. The filtered suspension was purified by size exclusion column (Superose 6, 10/300 GL) in Buffer B (20 mM HEPES, 150 mM NaCl) to remove TbCl3 outside liposomes. […] The liposomes are diluted to 50 μM with Buffer C (20 mM HEPES, 150 mM NaCl and 50 μM DPA) for use in high-throughput screening.

ASC specks = assay: ASC speck formation in LPS-primed THP-1 cells plus nigericin; type: cell-based, human; conditions: for ASC speck formation: 1 hr before nigericin
Protocol: Immunostaining and confocal microscopy: cells grown on coverslips were fixed for 15 min with 4% paraformaldehyde in PBS, permeabilized for 5 min in 0.1% Triton X-100 in PBS and blocked using 5% BSA for 1 hr. Then, cells were stained with the indicated primary antibodies followed by incubation with fluorescent-conjugated secondary antibodies (Jackson ImmunoResearch). Nuclei were counterstained with DAPI (4,6-diamidino-2-phenylindole) (Sigma-Aldrich). Slides were mounted using Aqua-Poly/Mount (Dako). Images were captured using a laser scanning confocal microscope (Olympus Fluoview FV1000 Confocal System) with a 63× water immersion objective and Olympus Fluoview software (Olympus). All confocal images are representative of three independent experiments.
Nigericin activates the assembly of the NLRP3 canonical inflammasome using an adaptor called apoptosis-associated speck-like protein containing a caspase recruitment domain (ASC), which can be visualized in immunofluorescent microscopy as specks. When LPS-primed THP-1 cells were treated with nigericin in the absence of inhibitors, ASC specks were detected in 30% of cells (FIG. 36). As expected, speck formation was not inhibited by z-VAD-fmk, since caspase activation occurs downstream of inflammasome assembly.
Cell death was determined by CytoTox96 assay. […] Cell death was determined by CytoTox96 assay. […] Shown are immunoblots of whole cell lysates harvested 0.5 hr later. […] Representative images of ASC specks (arrowheads) and mean±s.d. percent of cells with ASC specks analyzed 20 min later (FIG. 47). Whole cell lysates (WCL) and culture supernatants (Sup) were harvested 30 min after adding nigericin and immunoblotted with the indicated antibodies (FIG. 50). Caspase-1 activity was assayed 30 min after adding nigericin using a cell-permeable fluorescence dye FAM-YVAD-FMK (FIG. 52). […] Representative images of ASC specks (arrowheads) and mean±s.d. percent of cells with ASC specks analyzed 20 min later (FIGS. 48 and 49). Whole cell lysates (WCL) and culture supernatants (Sup), harvested 30 min after adding nigericin, were analyzed by immunoblot (FIG. 51). […] The Figures show representative confocal microscopy images and quantification of proportion of cells with GSDMD membrane staining and pyroptotic bubbles. Arrows indicate GSDMD staining of pyroptotic bubbles. […] FIGS. 57 and 58, dose response curve of the effect of Bay 11-7082 on caspase-1 (FIG. 57) and caspase-11 (FIG. 58) activity against a fluorescent peptide substrate. […] (FIG. 60). FIGS. 61 and 62 show dose response curve of the effect of Bay 11-7082 on liposome leakage induced by 0.3 μM human GSDMD-3C (FIG. 61) or mouse GSDMA3-3C (FIG. 62) plus 0.15 μM 3C protease. […] 2-fold dilutions of Bay 11-7082 from 5-40 μM were used. Graphs show the mean±s.d; data are representative of three independent experiments. *P<0.05, **P<0.01.

Structure (SMILES)	IC50 (caspase-11) [nM]	effect of Cu(II) on caspase-11 inhibition (caspase-11; with Cu(II))	IC50 (Human GSDMD) [nM]	incubation time to inhibition of liposome leakage (Human GSDMD; time course, preincubation 2-90 min) [min]	effect of copper gluconate (Cu2+) on inhibition of liposome leakage (Human GSDMD; with Cu2+)	ASC puncta (ASC specks; 1 μM with copper gluconate)	cells with ASC specks (ASC specks; 30 μM, 1 hour before nigericin)	ASC speck formation (ASC specks; 30 μM)	times less active against caspase-11 than disulfiram (caspase-11)	times less active than disulfiram at inhibiting liposome leakage (Human GSDMD; GSDMD plus caspase-11) [fold]
CCN(CC)C(=S)SSC(=S)N(CC)CC [C-23, Tetraethylthiuram disulfide]	730 ± 70	did not strongly change	~300	≤ 2	only weakly increased	reduced ASC puncta	about 20 % of cells	inhibited ASC speck formation, but not completely		
Cc1ccc(S(=O)(=O)/C=C/C#N)cc1 [Bay 11-7082]			6810 ± 100					inhibited ASC speck formation, but not completely	about 3 fold	23

Reference: US20210267996A1, “Compounds for inhibition of inflammation” (Children`s Medical Center Corporation, priority 2018, published 2021)
